Assay results as given in patent publication US11739098B2 (BRISTOL-MYERS SQUIBB COMPANY, priority 2017, dated 2023).

What was measured:
Assay type in all cases: cell-based
[1] = molecular target: T1, human TLR9 (Homo sapiens, UniProt Q9NR96); experiment: TLR9 inhibition reporter assay (HEK-Blue cells, SEAP reporter, ODN2006 stimulation); settings: HEK-Blue cells overexpressing human TLR9, SEAP reporter, ODN2006 5 nM
T1 construct: host or cells: HEK-Blue cells (HEK293-derived reporter line)
T1 sequence (Q9NR96 26-1032): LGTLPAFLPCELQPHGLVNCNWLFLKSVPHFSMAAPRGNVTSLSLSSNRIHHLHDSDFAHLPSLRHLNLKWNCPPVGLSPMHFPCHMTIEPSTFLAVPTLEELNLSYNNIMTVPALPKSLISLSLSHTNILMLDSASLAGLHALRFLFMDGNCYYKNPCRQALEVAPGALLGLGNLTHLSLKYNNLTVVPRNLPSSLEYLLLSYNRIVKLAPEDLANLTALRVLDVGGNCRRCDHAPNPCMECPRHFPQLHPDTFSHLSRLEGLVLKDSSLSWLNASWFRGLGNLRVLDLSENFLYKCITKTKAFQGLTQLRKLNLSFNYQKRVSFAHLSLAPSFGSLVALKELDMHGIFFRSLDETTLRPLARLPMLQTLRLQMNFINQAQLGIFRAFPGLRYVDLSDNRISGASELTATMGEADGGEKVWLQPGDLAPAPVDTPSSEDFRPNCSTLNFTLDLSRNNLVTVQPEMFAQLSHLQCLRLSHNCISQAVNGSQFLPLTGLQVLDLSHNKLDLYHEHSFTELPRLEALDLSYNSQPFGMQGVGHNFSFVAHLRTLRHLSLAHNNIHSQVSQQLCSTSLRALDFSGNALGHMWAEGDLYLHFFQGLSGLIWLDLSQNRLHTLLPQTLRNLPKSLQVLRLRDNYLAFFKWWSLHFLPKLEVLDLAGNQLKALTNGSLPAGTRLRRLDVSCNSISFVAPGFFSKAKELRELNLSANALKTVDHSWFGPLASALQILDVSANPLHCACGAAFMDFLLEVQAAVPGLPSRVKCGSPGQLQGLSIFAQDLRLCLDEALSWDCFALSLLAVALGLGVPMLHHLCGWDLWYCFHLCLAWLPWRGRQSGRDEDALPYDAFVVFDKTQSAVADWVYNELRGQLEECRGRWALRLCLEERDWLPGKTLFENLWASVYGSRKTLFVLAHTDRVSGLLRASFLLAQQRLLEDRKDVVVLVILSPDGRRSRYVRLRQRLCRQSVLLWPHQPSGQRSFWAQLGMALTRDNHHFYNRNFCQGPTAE
Protocol: (§1) TLR7/8/9 Inhibition Reporter Assays
(§2) HEK-Blue™-cells (Invivogen) overexpressing human TLR7, TLR8 or TLR9 receptors were used for screening inhibitors of these receptors using an inducible SEAP (secreted embryonic alkaline phosphatase) reporter gene under the control of the IFN-β minimal promoter fused to five NF-κB and AP-1-binding sites. Briefly, cells are seeded into Greiner 384 well plates (15000 cells per well for TLR7, 20,000 for TLR8 and 25,000 for TLR9) and then treated with test compounds in DMSO to yield a final dose response concentration range of 0.05 nM-50 μM. After a 30 minute compound pre-treatment at room temperature, the cells are then stimulated with a TLR7 ligand (gardiquimod at a final concentration of 7.5 μM), TLR8 ligand (R848 at a final concentration of 15.9 μM) or TLR9 ligand (ODN2006 at a final concentration of 5 nM) to activate NF-κB and AP-1 which induce the production of SLAP After a 22 hour incubation at […], SLAP levels are determined with the addition of HLK-Blue™ Detection reagent (Invivogen), a cell culture medium that allows for detection of SLAP, according to manufacturer's specifications. The percent inhibition is determined as the […] in the HEK-Blue signal present in wells treated with agonist plus DMSO alone compared to wells treated with a known inhibitor.

[2] = molecular target: T2, human TLR7 (Homo sapiens, UniProt Q9NYK1); experiment: TLR7 inhibition reporter assay (HEK-Blue cells, SEAP reporter, gardiquimod stimulation); settings: HEK-Blue cells overexpressing human TLR7, SEAP reporter, gardiquimod 7.5 μM
T2 construct: host or cells: HEK-Blue cells (HEK293-derived reporter line)
T2 sequence (Q9NYK1 27-1049): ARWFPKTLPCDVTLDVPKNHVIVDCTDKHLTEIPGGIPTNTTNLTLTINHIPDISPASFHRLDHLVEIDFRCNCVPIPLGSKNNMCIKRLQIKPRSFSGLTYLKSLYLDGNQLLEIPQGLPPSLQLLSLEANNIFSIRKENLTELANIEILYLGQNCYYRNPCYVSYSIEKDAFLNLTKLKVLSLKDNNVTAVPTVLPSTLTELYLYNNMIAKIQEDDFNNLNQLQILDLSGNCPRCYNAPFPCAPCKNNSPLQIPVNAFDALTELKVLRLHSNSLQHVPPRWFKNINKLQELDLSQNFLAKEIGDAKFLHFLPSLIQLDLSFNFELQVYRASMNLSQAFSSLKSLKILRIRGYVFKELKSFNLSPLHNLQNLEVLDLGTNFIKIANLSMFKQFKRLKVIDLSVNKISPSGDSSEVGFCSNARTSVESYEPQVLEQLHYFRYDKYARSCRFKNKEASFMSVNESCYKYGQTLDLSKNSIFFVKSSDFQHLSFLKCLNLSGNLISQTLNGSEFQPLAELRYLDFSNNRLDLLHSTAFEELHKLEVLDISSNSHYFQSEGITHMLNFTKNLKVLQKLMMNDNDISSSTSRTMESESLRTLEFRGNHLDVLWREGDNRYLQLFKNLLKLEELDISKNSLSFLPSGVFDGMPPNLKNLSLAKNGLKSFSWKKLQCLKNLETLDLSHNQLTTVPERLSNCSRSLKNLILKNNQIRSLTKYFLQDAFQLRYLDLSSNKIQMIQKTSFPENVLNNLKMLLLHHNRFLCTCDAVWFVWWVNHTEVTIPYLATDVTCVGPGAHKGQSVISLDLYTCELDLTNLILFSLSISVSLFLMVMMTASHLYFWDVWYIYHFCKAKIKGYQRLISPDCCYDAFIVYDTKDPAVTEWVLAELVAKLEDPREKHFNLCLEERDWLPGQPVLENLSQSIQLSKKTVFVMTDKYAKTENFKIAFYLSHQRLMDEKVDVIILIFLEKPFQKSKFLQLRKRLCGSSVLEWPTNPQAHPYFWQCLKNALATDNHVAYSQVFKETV
Protocol: as §1, §2

[3] = molecular target: T3, human TLR8 (Homo sapiens, UniProt Q9NR97); experiment: TLR8 inhibition reporter assay (HEK-Blue cells, SEAP reporter, R848 stimulation); settings: HEK-Blue cells overexpressing human TLR8, SEAP reporter, R848 15.9 μM
T3 construct: host or cells: HEK-Blue cells (HEK293-derived reporter line)
T3 sequence (Q9NR97 27-1041): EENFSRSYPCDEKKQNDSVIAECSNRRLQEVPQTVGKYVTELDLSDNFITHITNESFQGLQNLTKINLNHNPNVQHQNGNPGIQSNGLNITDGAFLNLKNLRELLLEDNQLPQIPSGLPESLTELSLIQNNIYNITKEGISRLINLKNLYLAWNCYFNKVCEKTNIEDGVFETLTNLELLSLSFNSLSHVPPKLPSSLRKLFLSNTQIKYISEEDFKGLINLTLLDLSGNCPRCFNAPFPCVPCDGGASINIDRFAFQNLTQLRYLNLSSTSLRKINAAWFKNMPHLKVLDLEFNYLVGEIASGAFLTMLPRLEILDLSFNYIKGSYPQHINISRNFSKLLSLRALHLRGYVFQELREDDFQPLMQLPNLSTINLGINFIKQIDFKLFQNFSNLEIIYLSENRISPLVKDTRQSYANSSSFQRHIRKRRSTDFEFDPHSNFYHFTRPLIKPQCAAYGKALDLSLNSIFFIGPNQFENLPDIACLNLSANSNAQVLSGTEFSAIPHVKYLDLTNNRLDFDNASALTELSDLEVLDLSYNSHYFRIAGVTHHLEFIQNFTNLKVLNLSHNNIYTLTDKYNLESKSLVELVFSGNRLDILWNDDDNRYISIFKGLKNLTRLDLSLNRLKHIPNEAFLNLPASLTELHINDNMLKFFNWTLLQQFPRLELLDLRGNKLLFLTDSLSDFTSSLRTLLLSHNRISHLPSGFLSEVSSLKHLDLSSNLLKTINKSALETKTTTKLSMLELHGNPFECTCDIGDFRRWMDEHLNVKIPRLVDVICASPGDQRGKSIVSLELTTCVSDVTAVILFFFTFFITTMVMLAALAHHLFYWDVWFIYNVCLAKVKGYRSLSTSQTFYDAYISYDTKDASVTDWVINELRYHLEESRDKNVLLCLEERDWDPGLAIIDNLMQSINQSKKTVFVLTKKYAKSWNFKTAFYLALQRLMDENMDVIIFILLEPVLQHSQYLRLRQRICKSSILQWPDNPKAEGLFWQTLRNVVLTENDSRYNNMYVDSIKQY
Protocol: as §1, §2

Row | SMILES | IC50 [1] [µM] | IC50 [2] [µM] | IC50 [3] [µM]
1 | Cc1cn2cc(-c3[nH]c4ccc(C5CCNCC5)cc4c3CC(F)F)ccc2n1 [Example 129, 6-(3-(2,2-difluoroethyl)-5-(piperidin-4-yl)-1H-indol-2-yl)-2-methylimidazo[1,2-a]pyridine] | 0.1 to 1 | < 0.1 | 
2 | Cc1c(-c2ncnc3c2cnn3C)[nH]c2ccc(C3CCN(C4CCN(C(C)C)CC4)CC3)cc12 [Example 818, 4-(5-(1′-isopropyl-[1,4′-bipiperidin]-4-yl)-3-methyl-1H-indol-2-yl)-1-methyl-1H-pyrazolo[3,4-d]pyrimidine] | 0.1 to 1 |  | > 3.13
3 | Cc1c(-c2ccnc3[nH]nnc23)[nH]c2ccc(C3CCNCC3)cc12 [Example 233, 7-(3-methyl-5-(piperidin-4-yl)-1H-indol-2-yl)-3H-[1,2,3] triazolo[4,5-b]pyridine] |  | 1 to 50 | 1 to 50
4 | Cc1c(-c2[nH]c3ccc(C4CCNCC4)cc3c2C(C)C)ccc2nccn12 [Example 111, 6-(3-isopropyl-5-(piperidin-4-yl)-1H-indol-2-yl)-5-methylimidazo[1,2-a]pyridine] |  | < 0.1 | 0.1 to 1
5 | COc1cc(-c2[nH]c3ccc(C4CCNCC4)cc3c2C(C)C)cn2cc(C(=O)N(C)C)nc12 [Example 263, 6-(3-isopropyl-5-(piperidin-4-yl)-1H-indol-2-yl)-8-methoxy-N,N-dimethylimidazo[1,2-a]pyridine-2-carboxamide] | 1 to 50 |  | < 0.1
6 | COc1cc(-c2[nH]c3ccc(C4CCN(CCS(C)(=O)=O)CC4)cc3c2C(C)C)cn2ccnc12 [Example 801, 6-(3-isopropyl-5-(1-(2-(methylsulfonyl)ethyl)piperidin-4-yl)-1H-indol-2-yl)-8-methoxyimidazo[1,2-a]pyridine] | 1 to 50 |  | < 0.1
7 | COC(=O)C1CC(N2CCC(c3ccc4[nH]c(-c5ccnc6[nH]ncc56)c(C(C)C)c4c3)CC2)CCN1 (centres unmarked) [Example 825, methyl 4-(3-isopropyl-2-(1H-pyrazolo[3,4-b]pyridin-4-yl)-1H-indol-5-yl)-[1,4′-bipiperidine]-2′-carboxylate] | 0.1 to 1 |  | < 0.1
8 | CC(C)c1c(-c2ccnc3[nH]ncc23)[nH]c2ccc(C3CCN(Cc4ccncc4Cl)CC3)cc12 [Example 923, 4-(5-(1-((3-chloropyridin-4-yl)methyl)piperidin-4-yl)-3-isopropyl-1H-indol-2-yl)-1H-pyrazolo[3,4-b]pyridine] |  | 0.1 to 1 | 0.1 to 1
9 | Cc1cc(-c2[nH]c3ccc(C4CCN(C(=O)C[C@H](C)O)CC4)cc3c2C(C)C)cn2nnnc12 [Example 593, (S)-3-hydroxy-1-(4-(3-isopropyl-2-(8-methyltetrazolo[1,5-a]pyridin-6-yl)-1H-indol-5-yl)piperidin-1-yl)butan-1-one] |  | < 0.1 | < 0.1
10 | CNC(=O)CN1CCC(c2ccc3[nH]c(-c4ccc5nc(C)cn5c4)c(CC(F)F)c3c2)CC1 [Example 417, 2-(4-(3-(2,2-difluoroethyl)-2-(2-methylimidazo[1,2-a]pyridin-6-yl)-1H-indol-5-yl)piperidin-1-yl)-N-methylacetamide] | 0.1 to 1 | < 0.1 | 
11 | CCc1c(-c2cccc3c2cnn3C)[nH]c2ccc(C3CCN(C(=O)CN4CCCN(C)CC4)CC3)cc12 [Example 521, 1-(4-(3-ethyl-2-(1-methyl-1H-indazol-4-yl)-1H-indol-5-yl)piperidin-1-yl)-2-(4-methyl-1,4-diazepan-1-yl)ethan-1-one] | 1 to 50 |  | > 50
12 | CNCC(=O)N1CCC(c2ccc3[nH]c(-c4ccc5nc(C)cn5c4)c(CC(F)F)c3c2)CC1 [Example 550, 1-(4-(3-(2,2-difluoroethyl)-2-(2-methylimidazo[1,2-a]pyridin-6-yl)-1H-indol-5-yl)piperidin-1-yl)-2-(methylamino)ethan-1-one] | 0.1 to 1 | < 0.1 | 
13 | CNCCN1CCC(c2ccc3[nH]c(-c4cnc5ccccc5c4)c(C)c3c2)CC1 [Example 664, N-methyl-2-(4-(3-methyl-2-(quinolin-3-yl)-1H-indol-5-yl)piperidin-1-yl)ethan-1-amine] | 0.1 to 1 |  | > 3.13
